Source: patent US7816522B2, “Triazolone derivatives” (Eisai Co., Ltd., priority 2006, dated 2010)

Target: T1, human clotting factor VIIa (Homo sapiens, UniProt P08709)
T1 construct: a human clotting factor VIIa (hereinafter, “Factor VIIa”) purified sample; purchased Enzyme Research Laboratories HFVIIa
Test: Inhibitory activity against clotting factor VIIa (chromogenic substrate Spectrozyme FVIIa, TF/Factor VIIa enzyme solution)
Type: biochemical
Conditions: human Factor VIIa 5 nmol/L with human TF 10 nmol/L, room temperature 40 minutes, 405 nm
In short: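 Human Factor VIIa (5 nmol/L) with human TF (10 nmol/L) in Tris-BSA buffer pH 7.4 containing 15 mmol/L CaCl2 and cephalin, with Spectrozyme FVIIa substrate. Reaction 40 min at room temperature; 4-nitroanilide read at 405 nm. IC50 by non-linear regression over 100 μmol/L–0.1 nmol/L.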

T1 sequence (P08709 213-466 limits assumed): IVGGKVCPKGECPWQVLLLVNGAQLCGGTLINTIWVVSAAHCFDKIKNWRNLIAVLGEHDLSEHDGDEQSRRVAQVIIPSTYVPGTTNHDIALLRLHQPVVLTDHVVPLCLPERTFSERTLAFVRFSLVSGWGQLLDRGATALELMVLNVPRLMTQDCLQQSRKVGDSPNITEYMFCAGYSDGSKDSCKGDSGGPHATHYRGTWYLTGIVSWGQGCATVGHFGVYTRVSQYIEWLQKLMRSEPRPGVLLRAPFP
T1 sequence (P08709 61-212 limits assumed): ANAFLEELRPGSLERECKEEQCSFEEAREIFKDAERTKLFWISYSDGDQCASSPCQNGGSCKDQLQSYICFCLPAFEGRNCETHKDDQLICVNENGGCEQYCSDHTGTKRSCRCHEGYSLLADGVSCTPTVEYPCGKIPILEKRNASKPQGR
T1 sequence (P13726 33-295 partner): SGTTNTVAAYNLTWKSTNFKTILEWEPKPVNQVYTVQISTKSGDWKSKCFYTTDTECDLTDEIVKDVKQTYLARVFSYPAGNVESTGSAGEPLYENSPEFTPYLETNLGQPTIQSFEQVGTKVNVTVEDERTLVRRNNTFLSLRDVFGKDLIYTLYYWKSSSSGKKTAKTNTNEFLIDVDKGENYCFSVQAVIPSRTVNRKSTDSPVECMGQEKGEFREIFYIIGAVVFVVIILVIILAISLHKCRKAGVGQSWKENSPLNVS

Compound	IC50 [nM]
COc1cc(OCCO)c(F)c(C(Nc2ccc(C(=N)N)cc2)c2nn(-c3ncccc3N)c(=O)[nH]2)c1 (racemic) [Example 201, 4-({(R) and (S)-[1-(3-Aminopyridin-2-yl)-5-oxo-4,5-dihydro-1H-[1,2,4]triazol-3-yl]-[2-fluoro-3-(2-hydroxyethoxy)-5-methoxyphenyl]methyl}amino)benzamidine acetate]	7.8
COCCOc1cc(OC)cc(C(Nc2ccc(C(=N)N)cc2)c2nn(-c3ncccc3N)c(=O)[nH]2)c1F (racemic) [Example 203, 4-({(R) and (S)-[1-(3-Aminopyridin-2-yl)-5-oxo-4,5-dihydro-1H-[1,2,4]triazol-3-yl]-[2-fluoro-5-methoxy-3-(2-methoxyethoxy)phenyl]methyl}amino)benzamidine acetate]	8.5
CCc1cc(OCCCO)c(F)c(C(Nc2ccc(C(=N)N)cc2)c2nn(-c3ncccc3N)c(=O)[nH]2)c1 (racemic) [Example 205, (R) and (S)-4-({[1-(3-Aminopyridin-2-yl)-5-oxo-4,5-dihydro-1H-[1,2,4]triazol-3-yl]-[5-ethyl-2-fluoro-3-(3-hydroxypropoxy)phenyl]methyl}amino)benzamidine acetate]	2.3
COc1cc(C(Nc2ccc(C(=N)N)cc2)c2nn(-c3ccsc3C(=O)O)c(=O)[nH]2)ccc1OCCCO (racemic) [Example 206, 3-(3-{(R) and (S)-(4-Carbamimidoylphenylamino)-[4-(3-hydroxypropoxy)-3-methoxyphenyl]methyl}-5-oxo-4,5-dihydro-[1,2,4]triazol-1-yl)thiophene-2-carboxylic acid]	5.6
COc1cc(C(Nc2ccc(C(=N)N)cc2)c2nn(-c3ncccn3)c(=O)[nH]2)c(F)cc1OCCO (racemic) [Example 208, 4-{[(R) and (S)-[2-Fluoro-4-(2-hydroxyethoxy)-5-methoxyphenyl]-(5-oxo-1-pyrimidin-2-yl-4,5-dihydro-1H-[1,2,4]triazol-3-yl)methyl]amino}benzamidine acetate]	85.6
COc1cc(C(Nc2ccc(C(=N)N)cc2)c2nn(-c3ccccc3C(N)=O)c(=O)[nH]2)cc2c1OCOC2 (racemic) [Example 211, 2-{3-[(4-Carbamimidoylphenylamino)-(8-methoxy-4H-benzo[1,3]dioxin-6-yl)methyl]-5-oxo-4,5-dihydro[1,2,4]triazol-1-yl}benzamide]	4.7
C#Cc1cc(OCCO)cc(C(Nc2ccc(C(=N)N)cc2)c2nn(-c3ncccn3)c(=O)[nH]2)c1 (racemic) [Example 212, 4-{[[3-Ethynyl-5-(2-hydroxyethoxy)phenyl]-(5-oxo-1-pyrimidin-2-yl-4,5-dihydro-1H-[1,2,4]triazol-3-yl)methyl]amino}benzamidine]	5.7
COc1cc(C(Nc2ccc(C(=N)N)cc2)c2nn(-c3ccccn3)c(=O)[nH]2)cc2c1OCOC2 (racemic) [Example 213, (R) and (S)-4-{[(8-Methoxy-4H-benzo[1,3]dioxin-6-yl)-(5-oxo-1-pyridin-2-yl-4,5-dihydro-1H-[1,2,4]triazol-3-yl)methyl]amino}benzamidine acetate]	3.3
COc1cc(C(Nc2ccc(C(=N)N)cc2)c2nn(-c3ccccc3C(N)=O)c(=O)[nH]2)cc2c1OCCCO2 (racemic) [Example 214, (R) and (S)-2-{3-[(4-Carbamimidoylphenylamino)-(9-methoxy-3,4-dihydro-2H-benzo[b][1,4]dioxepin-7-yl)methyl]-5-oxo-4,5-dihydro[1,2,4]triazol-1-yl}benzoic acid amide acetate]	3.5
COc1cc(C(Nc2ccc(C(=N)N)cc2)c2nn(-c3ccsc3C(=O)O)c(=O)[nH]2)c(F)c2c1OCC2 (racemic) [Example 215, (R) and (S)-3-{3-[(4-Carbamimidoylphenylamino)-(4-fluoro-7-methoxy-2,3-dihydrobenzofuran-5-yl)methyl]-5-oxo-4,5-dihydro[1,2,4]triazol-1-yl}thiophene-2-carboxylic acid]	3.4
COc1cc(O[C@@H](C)CO)c(F)c(C(Nc2ccc(C(=N)N)cc2)c2nn(-c3ncccn3)c(=O)[nH]2)c1 (mixture of isomers) [Example 217, (R) and (S)-4-{[[2-Fluoro-3-((S)-2-hydroxy-1-methylethoxy)-5-methoxyphenyl]-(5-oxo-1-pyrimidin-2-yl-4,5-dihydro-1H-[1,2,4]triazol-3-yl)methyl]amino}benzamidine acetate]	3.1
COc1cc(OCCO)c(F)c(C(Nc2ccc(C(=N)N)c(F)c2)c2nn(-c3ncccn3)c(=O)[nH]2)c1 (racemic) [Example 218, 2-Fluoro-4-{[[2-fluoro-3-(2-hydroxyethoxy)-5-methoxyphenyl]-(5-oxo-1-pyrimidin-2-yl-4,5-dihydro-1H-[1,2,4]triazol-3-yl)methyl]amino}benzamidine]	52.4
CCOc1cc(OCCO)c(F)c(C(Nc2ccc(C(=N)N)cc2)c2nn(-c3ncccn3)c(=O)[nH]2)c1 (racemic) [Example 219, (R) and (S)-4-{[[5-Ethoxy-2-fluoro-3-(2-hydroxyethoxy)phenyl]-(5-oxo-1-pyrimidin-2-yl-4,5-dihydro-1H-[1,2,4]triazol-3-yl)methyl]amino}benzamidine acetate]	9.5
CCOc1cc(OCCO)cc(C(Nc2ccc(C(=N)N)cc2)c2nn(-c3ncccn3)c(=O)[nH]2)c1 (racemic) [Example 220, 4-{[[3-Ethoxy-5-(2-hydroxyethoxy)phenyl]-(5-oxo-1-pyrimidin-2-yl-4,5-dihydro-1H-[1,2,4]triazol-3-yl)methyl]amino}benzamidine]	7.2
CCOc1cc(O)cc(C(Nc2ccc(C(=N)N)cc2)c2nn(-c3ncccn3)c(=O)[nH]2)c1 (racemic) [Example 221, 4-{[(3-Ethoxy-5-hydroxyphenyl)-(5-oxo-1-pyrimidin-2-yl-4,5-dihydro-1H-[1,2,4]triazol-3-yl)methyl]amino}benzamidine]	25.8
COc1cc(C(Nc2ccc(C(=N)N)cc2)c2nn(-c3ccsc3C(=O)O)c(=O)[nH]2)c(F)c2c1OCCC2 (racemic) [Example 222, 3-{3-[(4-Carbamimidoylphenylamino)-(5-fluoro-8-methoxychroman-6-yl)methyl]-5-oxo-4,5-dihydro-[1,2,4]triazol-1-yl}thiophene-2-carboxylic acid]	2.7
COc1cc(C(Nc2ccc(C(=N)N)cc2)c2nn(-c3ncccn3)c(=O)[nH]2)cc2c1OCC(=O)N2CCF (racemic) [Example 223, 4-{[[4-(2-Fluoroethyl)-8-methoxy-3-oxo-3,4-dihydro-2H-benzo[1,4]oxazin-6-yl]-(5-oxo-1-pyrimidin-2-yl-4,5-dihydro-1H-[1,2,4]triazol-3-yl)methyl]amino}benzamidine]	13.4
COc1cc(OC)cc(C(Nc2ccc(C(=N)N)cc2)c2nn(-c3ncccc3C)c(=O)[nH]2)c1 (racemic) [Example 225, (R) and (S)-4-({(3,5-Dimethoxyphenyl)-[1-(3-methylpyridin-2-yl)-5-oxo-4,5-dihydro-1H-[1,2,4]triazol-3-yl]methyl}amino)benzamidine acetate]	3.7
COc1cc(C(Nc2ccc(C(=N)N)cc2)c2nn(-c3ccsc3C(=O)O)c(=O)[nH]2)cc2c1OCOC2 (racemic) [Example 226, 3-{3-[(R) and (S)-(4-Carbamimidoylphenylamino)-(8-methoxy-4H-benzo[1,3]dioxin-6-yl)methyl]-5-oxo-4,5-dihydro-[1,2,4]triazol-1-yl}thiophene-2-carboxylic acid]	3.2
